According to publication PMC12631873 (Advanced Science, 2025):
Square brackets hold non-standard residues; d marks the D form. Peptide text beside a SMILES is read from it. * marks the point of attachment. X1 = CN1/C(=C/C=C/C=C/C2=[N+](CCCCCC(=O)*)c3ccc(S(=O)(=O)[O-])cc3C2(C)C)C(C)(C)c2cc(S(=O)(=O)O)ccc21; Hyp = O=C(O)[C@@H]1C[C@@H](O)CN1; Nlys = NCCCCNCC(=O)O; Ahx = NCCCCCC(=O)O

How the values were obtained:
[1] = Serum stability test (HPLC); assay type: in vitro ADME, mouse; settings: 37 °C, HPLC UV 646 nm, n = 3; for degradation in serum (in words): 25% v/v mouse serum, 24 h and even after 48 h
Description: Cy5‐labeled peptidomimetic probes (10 nmol) were incubated in 25% v/v mouse serum (Biosharp, BL1053A diluted in 1× PBS) at 37 °C. Aliquots (200 µL) were taken periodically at 0 (deadtime: ≈10 min), 2, 24, and 48 h, and added to 400 µL of 3.75% trichloroacetic acid in acetonitrile at 4 °C. Then, all samples were centrifuged to remove the precipitated serum proteins at 13800 g for 10 min at 4 °C. The supernatant (150 µL) was taken to mix with 550 µL of water (with 0.1% TFA) to centrifuge again at 2630 g for 5 min at 4 °C. Five microliter of the supernatant was mixed with 200 µL of water containing 0.1% TFA as the final samples for HPLC analysis at room temperature monitored by absorbance at 646 nm with the integral area of the intact fraction recorded. The peak area for the 10 min time point was designated as 100% intact, and each peak area at successive time points was normalized to the 10 min peak to calculate the percent compound remaining. All the experiments were repeated three times.

rat chondrocytes = assay: CCK-8 cell viability assay on rat chondrocytes; assay type: cell-based; settings: n = 4 wells
Description: The cultures were maintained under standard conditions of 37 °C and 5% CO2. Chondrocytes collected from the articular cartilage of Sprague‐Dawley (SD) rats (purchased from Jennio Biotech, JNO‐720) were cultured in DMEM medium (Precell, PM150210). Human venous endothelial cells (HUVECs, purchased from iCell, iCell‐h110) were cultured in HUVEC medium (iCell, iCell‐h110‐001b). Both cells were seeded in 96‐well plates at a density of 5000 cells per well. The medium was supplemented with 10% fetal bovine serum (FBS, Precell, 164210) and penicillin‐streptomycin (1:100 diluted from a 100× stock solution, ThermoFisher, 15140122) to support cell growth and prevent bacterial contamination. […] Cell viability was assessed using the CCK‐8 assay kit (GLPBIO, GK10001−5) according to the manufacturer's instructions. After further incubation for 4 h, the optical density (OD) of the CCK‐8 solution was measured at 450 nm using a microplate reader (PerkinElmer, EnVision). […] The fluorescence images were obtained using an EVOS M7000 imaging system (Light cubes: GFP and RFP, Objective: 10×). A microscopic image was taken from the live (Calcein AM) staining of each well, and the total fluorescence signals were quantified for each image. The mean fluorescence level of each probe's group was normalized to the blank control group to estimate the relative cell viability. […]

[2] = system: human umbilical vein endothelial cells (HUVECs); assay: CCK-8 cell viability assay on HUVECs; assay type: cell-based; settings: 0-40 µM, 24 h, n = 6 wells
Description: The cultures were maintained under standard conditions of 37 °C and 5% CO2. Chondrocytes collected from the articular cartilage of Sprague‐Dawley (SD) rats (purchased from Jennio Biotech, JNO‐720) were cultured in DMEM medium (Precell, PM150210). Human venous endothelial cells (HUVECs, purchased from iCell, iCell‐h110) were cultured in HUVEC medium (iCell, iCell‐h110‐001b). Both cells were seeded in 96‐well plates at a density of 5000 cells per well. The medium was supplemented with 10% fetal bovine serum (FBS, Precell, 164210) and penicillin‐streptomycin (1:100 diluted from a 100× stock solution, ThermoFisher, 15140122) to support cell growth and prevent bacterial contamination. When cell confluency reached 80%, peptidomimetic probes at increasing concentrations ranging from 0 to 40 µM were added to the cell culture medium (n = 4 wells for chondrocytes, n = 6 wells for HUVECs; blank control group: 0 µM; cells cultured without probe). Following 24 h (or 72 h) of incubation, the medium was removed, and the cells were rinsed three times with 1× PBS buffer. Cell viability was assessed using the CCK‐8 assay kit (GLPBIO, GK10001−5) according to the manufacturer's instructions. After further incubation for 4 h, the optical density (OD) of the CCK‐8 solution was measured at 450 nm using a microplate reader (PerkinElmer, EnVision). For live‐dead cell staining, rat chondrocytes (5000 cells per well seeded, n = 4 wells per group) were cultured for 24 h in medium (without fetal bovine serum) containing 40 µM of each peptidomimetic probe in a 96‐well plate. […] The fluorescence images were obtained using an EVOS M7000 imaging system (Light cubes: GFP and RFP, Objective: 10×). A microscopic image was taken from the live (Calcein AM) staining of each well, and the total fluorescence signals were quantified for each image. The mean fluorescence level of each probe's group was normalized to the blank control group to estimate the relative cell viability. […] The fluorescence intensity of each well was measured by the microplate reader (Ex / Em: 620 /662 nm). […]

In the case of `CN1/C(=C/C=C/C=C/C2=[N+](CCCCCC(=O)NCCCCCC(=O)N(CCCCN)CC(=O)N3C[C@H](O)C[C@H]3C(=O)N(CCCCN)CC(=O)N3C[C@H](O)C[C@H]3C(=O)N(CCCCN)CC(=O)N3C[C@H](O)C[C@H]3C(=O)N(CCCCN)CC(=O)N3C[C@H](O)C[C@H]3C(=O)N(CCCCN)CC(=O)N3C[C@H](O)C[C@H]3C(=O)N(CCCCN)CC(=O)N3C[C@H](O)C[C@H]3C(=O)N(CCCCN)CC(=O)N3C[C@H](O)C[C@H]3C(N)=O)c3ccc(S(=O)(=O)[O-])cc3C2(C)C)C(C)(C)c2cc(S(=O)(=O)O)ccc21` [Cy5‐(NlysO)7] ({X1-Ahx}-[Nlys][Hyp][Nlys][Hyp][Nlys][Hyp][Nlys][Hyp][Nlys][Hyp][Nlys][Hyp][Nlys][Hyp]-NH2), the “degradation in serum (in words)” value [1] was “hardly degraded”, the “cytotoxicity to chondrocytes over 72 h (CCK-8)” value (rat chondrocytes; tested concentrations 0-40 µM, 72 h) was “did not show cytotoxicity” and the “cytotoxicity to HUVECs (CCK-8), in words” value [2] was “did not exhibit cytotoxicity”. For the same molecule, the “cytotoxicity to HUVECs (CCK-8), in words” value ([2]; listed as Cy5-(NlysO)7) was “no apparent cytotoxicity at the tested concentrations”.

With `CN1/C(=C/C=C/C=C/C2=[N+](CCCCCC(=O)NCCCCCC(=O)N[C@@H](CCCNC(=N)N)C(=O)N[C@@H](CCCNC(=N)N)C(=O)N[C@@H](CCCNC(=N)N)C(=O)N[C@@H](CCCNC(=N)N)C(=O)N[C@@H](CCCNC(=N)N)C(=O)N[C@@H](CCCNC(=N)N)C(=O)N[C@@H](CCCNC(=N)N)C(=O)N[C@@H](CCCNC(=N)N)C(N)=O)c3ccc(S(=O)(=O)[O-])cc3C2(C)C)C(C)(C)c2cc(S(=O)(=O)O)ccc21` [Cy5‐R8, reference compound] the “intact compound remaining after 2 h serum incubation” value ([1]; 25% v/v mouse serum in 1× PBS, 10 nmol probe, peak area normalized to 10 min) was “no intact R8 peptide remained”, the “degradation in serum (in words)” value [1] was “extremely unstable” and the “cytotoxicity to cultured chondrocytes (CCK8), in words” value (rat chondrocytes; 0-40 µM, 24 h) was “significant cytotoxicity”. The “cytotoxicity to HUVECs (CCK-8), in words” value [2] was “significant cytotoxicity”.
